# Results as given in patent EP1369415A1, “Substituted pyrrolyl compounds for the treatment of inflammation” (G.D. SEARLE & CO., priority 1996, dated 1998).
# How the values were obtained:
# carrageenan foot edema = test: Rat Carrageenan Foot Pad Edema Test; format: in vivo, Male Sprague-Dawley rats; settings: @ 30mg/kg body weight; dosed orally one hour before carrageenan; foot volume three hours after injection
# [1] = Analgesia (Table I; method not described); format: in vivo; settings: @ 30mg/kg body weight
# COX-1 = COX-1 (Homo sapiens, UniProt P23219); format: biochemical, human or murine
# COX-1, sequence (P23219 24-599): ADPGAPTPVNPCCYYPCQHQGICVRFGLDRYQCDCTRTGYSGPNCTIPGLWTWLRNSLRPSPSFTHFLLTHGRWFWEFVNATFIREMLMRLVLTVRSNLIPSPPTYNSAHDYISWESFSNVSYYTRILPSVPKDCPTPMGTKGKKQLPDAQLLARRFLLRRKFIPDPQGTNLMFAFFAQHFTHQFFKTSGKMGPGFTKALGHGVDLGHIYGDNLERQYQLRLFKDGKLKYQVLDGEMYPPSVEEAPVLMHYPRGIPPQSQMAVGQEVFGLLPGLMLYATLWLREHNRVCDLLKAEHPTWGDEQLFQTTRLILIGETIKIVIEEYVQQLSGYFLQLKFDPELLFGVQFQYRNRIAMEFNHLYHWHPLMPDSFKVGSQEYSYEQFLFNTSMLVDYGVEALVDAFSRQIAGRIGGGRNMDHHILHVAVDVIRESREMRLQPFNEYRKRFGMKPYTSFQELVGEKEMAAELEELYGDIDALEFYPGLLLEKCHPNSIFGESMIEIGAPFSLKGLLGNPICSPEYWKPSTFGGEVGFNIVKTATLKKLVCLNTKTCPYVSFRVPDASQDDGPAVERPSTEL
SMILES,RAT PAW EDEMA % Inhibition (carrageenan foot edema),ANALGESIA % Inhibition [1],IC50 (COX-1)
"CS(=O)(=O)c1ccc(-n2cccc2-c2ccc(F)cc2)cc1 [Example 8, 2-(4-Fluorophenyl)-1-[4-(methylsulfonyl)phenyl]-1H-pyrrole]",56%,47%,
"NS(=O)(=O)c1ccc(-n2cccc2-c2ccc(F)cc2)cc1 [Example 9, 4-[2-(4-Fluorophenyl)-1H-pyrrol-1-yl]benzenesulfonamide]",,,10.4 µM
